Molecular target: T1, CHRM5 (Homo sapiens, UniProt P08912)
T1 construct: purchased Promega (in-house HiBiT-GPCR construct library, NanoBRET)
T1 sequence (P08912 1-532): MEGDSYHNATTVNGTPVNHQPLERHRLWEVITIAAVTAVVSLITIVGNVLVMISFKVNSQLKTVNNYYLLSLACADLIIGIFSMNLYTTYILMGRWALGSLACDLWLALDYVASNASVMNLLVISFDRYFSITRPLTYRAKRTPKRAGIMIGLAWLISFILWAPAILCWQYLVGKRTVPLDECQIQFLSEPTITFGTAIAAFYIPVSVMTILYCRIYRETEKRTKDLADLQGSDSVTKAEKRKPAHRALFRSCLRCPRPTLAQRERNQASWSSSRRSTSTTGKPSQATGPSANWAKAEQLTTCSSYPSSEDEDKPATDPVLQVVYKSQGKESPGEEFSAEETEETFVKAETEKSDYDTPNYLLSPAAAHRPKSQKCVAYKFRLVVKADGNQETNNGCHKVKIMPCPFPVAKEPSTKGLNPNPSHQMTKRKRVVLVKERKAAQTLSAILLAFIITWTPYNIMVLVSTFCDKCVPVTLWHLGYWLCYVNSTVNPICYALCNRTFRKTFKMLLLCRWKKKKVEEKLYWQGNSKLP
Test: NanoBRET screen HiBiT-CHRM5 in HEK293
Assay type: binding
Method: Each tracer candidate was screened across the entire library of HiBiT-GPCR constructs using NanoBRET as the detection modality. As depicted in Figure 4A, the specificity of interactions was evaluated through decrease in BRET due to competitive displacement of a bound tracer by excess parental compound. Each tracer was analyzed for binding to each HiBiT-GPCR fusion in the absence and in the presence of competing parental compound. Briefly, HEK293 cells were transfected with HiBiT-GPCR constructs diluted into promoterless DNA to reduce expression and maximize translocation to the cell surface. Each tracer candidate was then screened at concentrations of 1 μM and 0.1 μM across cells expressing these fusions. Cells were treated for 1.5 h with tracer either alone or in the presence of 20 μM competing parental compound (i.e., control). BRET was measured upon addition of purified LgBiT and subsequent complementation with HiBiT genetically fused to a GPCR. The specificity of interactions was assessed through a decrease in BRET signal due to competitive displacement of the bound tracer. To further gauge the robustness of these interactions, the fold response over the control (i.e., BRETtracer/BRETcontrol) was calculated. We chose a 1.5-fold response, which translates to ≥7-fold signal over noise as the minimal threshold required to score an interaction as positive.
HiBiT-GPCR DNA constructs were diluted in 10 mM Tris pH 8 to a final concentration of 0.01 μg/μL, arrayed in 96-well plates and stored at −20 °C. For transfection, HEK293 cells were suspended in Opti-MEM (without phenol red) supplemented with 2% fetal bovine serum (Seradigm) and 100 units/mL penicillin–streptomycin (Gibco) at a final concentration of 220,000 cells/mL and dispensed into white 96-well plates at 90 μL/well. Subsequent transfections and screens were carried using an Agilent Bravo Automated Liquid Handling Platform. First, the 96-well HiBiT DNA arrays were diluted 25-fold in Opti-MEM (without serum or phenol red) to a final concentration of 0.0004 μg/μL and 20 μL of the diluted DNAs were transferred into new 96-well plates. Next, promoterless carrier DNA (1 μg/μL) was diluted 25-fold (0.04 μg/μL) and then dispensed into the diluted arrays at 20 μL/well. Following brief mixing, Viafect transfection reagent (Promega) diluted 16-fold into Opti-MEM was dispensed into the plates at 40 μL/well. After mixing by pipetting, plates were incubated for 10 min on the pipetting station deck. The DNA-transfection reagent complexes were then added to plates containing cells. To facilitate the screen, 10 μL of DNA-transfection reagent complexes were added in duplicates to the top 4 and bottom 4 rows, resulting in two identical 48-well arrays per plate. Plates with transfected cells were incubated for 18–20 h at 37 °C/5% CO2. A screen of each tracer across the entire library using two different concentrations requires duplicate plates of transfected cells. Depending on the number of tracers being screened, transfections can be scaled up using the same ratios. The next day, for each tracer, four 20× screening solutions in tracer dilution buffer (Promega) were prepared: two duplicates at final concentration of 20 μM and two duplicates at a final concentration of 2 μM. […] The four resulting solutions were diluted 4-fold in Opti-MEM without serum or phenol red to generate 5× solutions (5 µM and 0.5 µM tracer +/− 100 μM competing compound). To screen the library, a BioTek MultiFlo FX liquid dispenser was used to dispense 22.5 µL of tracer solution to the top 4 rows and 22.5 µL tracer + competing compound solution to the 4 bottom rows. Plates were briefly mixed on an orbital shaker and incubated for 1.5 h at room temperature. […] Plates were briefly mixed on an orbital shaker and incubated for 15 min to allow complementation.

Structure (SMILES)	NanoBRET Fold Response (CHRM5, tracer 0.1μM)	NanoBRET Fold Response (CHRM5, tracer 1μM)	other results
COc1ccc2c(n1)c(CCNC(C)=O)cn2CCNC(=O)CCc1ccc2n1[B-](F)(F)[N+]1=C(c3ccc[nH]3)C=CC1=C2 [Azamelatonin-1-NB590]	–	–	NanoBRET Fold Response (0.1μM tracer): 0.89; NanoBRET Fold Response (1μM tracer): 1.23
CC(C)N(CC[C@H](c1ccccc1)c1cc(CCNC(=O)c2ccc(CNC(=O)CCc3ccc4n3[B-](F)(F)[N+]3=C(c5ccc[nH]5)C=CC3=C4)cc2)ccc1O)C(C)C [Tolterodine-BZ-NB590]	2.88	1.94	–
O=C(CCc1ccc2n1[B-](F)(F)[N+]1=C(c3ccc[nH]3)C=CC1=C2)NCCOCCOCCNC(=O)OCCOCCN1CCN(C2=Nc3ccccc3Sc3ccccc32)CC1 [Quetiapine-a-2-NB590]	1.18	1.36	–
Cc1cc2c(s1)Nc1ccccc1N=C2N1CCN(CCCNC(=O)CCOCCOCCOCCOCCNC(=O)CCc2ccc3n2[B-](F)(F)[N+]2=C(c4ccc[nH]4)C=CC2=C3)CC1 [Olanzapine-a-2-NB590]	1.05	1.00	–
O=C(CCc1ccc2n1[B-](F)(F)[N+]1=C(c3ccc[nH]3)C=CC1=C2)NCc1ccc(C(=O)NCCOCCOCCNCC(O)COc2cccc3ccccc23)cc1 (centres unmarked) [Propranolol-3-NB590]	–	–	NanoBRET Fold Response (CHRM5, 0.1μM): 1.00; NanoBRET Fold Response (CHRM5, 1μM): 1.03
CN1CCN(C2=Nc3cc(Cl)ccc3N(CC(=O)NCCOCCOCCOCCOCCNC(=O)CCc3ccc4n3[B-](F)(F)[N+]3=C(c5ccc[nH]5)C=CC3=C4)c3ccccc32)CC1 [Clozapine-c-2-NB590]	–	–	NanoBRET Fold Response (CHRM5, 0.1μM tracer): 1.00; NanoBRET Fold Response (CHRM5, 1μM tracer): 0.86
O=C(CCc1ccc2n1[B-](F)(F)[N+]1=C(c3ccc[nH]3)C=CC1=C2)NCc1ccc(C(=O)NCCOCCC(=O)N[C@@H]2CC[C@@]3(O)[C@H]4Cc5ccc(O)c6c5[C@@]3(CCN4CC3CC3)[C@H]2O6)cc1 [Naltrexone-3-NB590]	1.18	0.79	–
CC(C)N(CC[C@H](c1ccccc1)c1cc(CCNC(=O)CCOCCOCCOCCOCCNC(=O)CCc2ccc3n2[B-](F)(F)[N+]2=C(c4ccc[nH]4)C=CC2=C3)ccc1O)C(C)C [Tolterodine-2-NB590]	3.27	2.82	–
Cc1nc2n(c(=O)c1CCN1CCC(c3noc4cc(F)ccc34)CC1)CCCC2OC(=O)NCCOCCOCCOCCOCCNC(=O)CCc1ccc2n1[B-](F)(F)[N+]1=C(c3ccc[nH]3)C=CC1=C2 (centres unmarked) [Risperidone-2-NB590]	1.07	0.95	–
O=C(CCOCCOCCOCCOCCNC(=O)CCc1ccc2n1[B-](F)(F)[N+]1=C(c3ccc[nH]3)C=CC1=C2)NCCCN1CCN(C2=Nc3cc(Cl)ccc3Nc3ccccc32)CC1 [Clozapine-a-2-NB590]	–	–	NanoBRET Fold Response (CHRM5, 0.1μM tracer): 1.10; NanoBRET Fold Response (CHRM5, 1μM tracer): 0.91
COc1ccc2[nH]c(-c3ccc(CNC(=O)CCOCCOCCOCCOCCNC(=O)CCc4ccc5n4[B-](F)(F)[N+]4=C(c6ccc[nH]6)C=CC4=C5)cc3)c(CCNC(C)=O)c2n1 [AzomelatoninICO9-2-NB590]	–	–	NanoBRET Fold Response (0.1μM tracer): 0.90; NanoBRET Fold Response (1μM tracer): 0.97
CN1CCN(C2=Nc3cc(Cl)ccc3Nc3ccc(CNC(=O)CCOCCOCCOCCOCCNC(=O)CCc4ccc5n4[B-](F)(F)[N+]4=C(c6ccc[nH]6)C=CC4=C5)cc32)CC1 [Clozapine-b-2-NB590]	–	–	NanoBRET Fold Response (CHRM5, 0.1μM tracer): 1.00
COc1ccccc1N1CCN(CCCCN2C(=O)c3ccc(CNC(=O)CCOCCNC(=O)c4ccc(CNC(=O)CCc5ccc6n5[B-](F)(F)[N+]5=C(c7ccc[nH]7)C=CC5=C6)cc4)cc3C2=O)CC1 [NAN-190-3-NB590]	1.00	1.24	–
N#CN=C(NCCCOc1cccc(CN2CCCCC2)c1)NCCNC(=O)CCOCCOCCOCCOCCNC(=O)CCc1ccc2n1[B-](F)(F)[N+]1=C(c3ccc[nH]3)C=CC1=C2 [Aminopotentidine-2-NB590]	1.02	1.10	–
CN(C)CCC=C1c2ccccc2CCc2ccc(C(=O)NCCNC(=O)CCOCCOCCOCCOCCNC(=O)CCc3ccc4n3[B-](F)(F)[N+]3=C(c5ccc[nH]5)C=CC3=C4)cc21 [Amitriptyline-b-2-NB590]	–	–	NanoBRET Fold Response (tracer at 0.1μM, listed as amitriptyline-b-2-NB590): 3.47; NanoBRET Fold Response (tracer at 1μM, listed as amitriptyline-b-2-NB590): 4.23
COc1ccccc1N1CCN(CCCCN2C(=O)c3ccc(CNC(=O)CCOCCOCCOCCOCCNC(=O)CCc4ccc5n4[B-](F)(F)[N+]4=C(c6ccc[nH]6)C=CC4=C5)cc3C2=O)CC1 [NAN-190-2-NB590]	0.90	–	–
O=C(CCOCCOCCOCCOCCNC(=O)CCc1ccc2n1[B-](F)(F)[N+]1=C(c3ccc[nH]3)C=CC1=C2)NCCCN1CCN(C2=Nc3ccccc3Oc3ccc(Cl)cc32)CC1 [Loxapine-a-2-NB590]	0.99	0.89	–
CN(CCC=C1c2ccccc2CCc2ccccc21)C(=O)CCOCCOCCOCCOCCNC(=O)CCc1ccc2n1[B-](F)(F)[N+]1=C(c3ccc[nH]3)C=CC1=C2 [Amitriptyline-e-2-NB590]	–	–	NanoBRET Fold Response (tracer at 1μM): 1.14
CCCn1c(=O)c2[nH]c(-c3ccc(OCC(=O)NCCNC(=O)CCOCCNC(=O)c4ccc(CNC(=O)CCc5ccc6n5[B-](F)(F)[N+]5=C(c7ccc[nH]7)C=CC5=C6)cc4)cc3)nc2n(CCC)c1=O [XAC-3-NB590]	0.98	0.86	–
CN(C)CCC=C1c2ccccc2CCc2ccc(C(=O)NCCNC(=O)CCOCCOCCOCCOCCNC(=O)CCc3ccc4n3[B-](F)(F)[N+]3=C(c5ccc[nH]5)C=CC3=C4)cc21 [Amitriptyline-a-2-NB590]	–	–	NanoBRET Fold Response (tracer at 1μM): 1.23
CCOC(=O)c1cc(C#N)c(N2CCC(C(=O)NS(=O)(=O)Cc3ccccc3/C=C/C(=O)NCCNC(=O)CCc3ccc4n3[B-](F)(F)[N+]3=C(c5ccc[nH]5)C=CC3=C4)CC2)nc1C [AZD1283-1-NB590]	–	–	NanoBRET Fold Response (CHRM5, 0.1μM): 1.08; NanoBRET Fold Response (CHRM5, 1μM): 1.08

Reference: PMC8151276, “An Integrated Approach toward NanoBRET Tracers for Analysis of GPCR Ligand Engagement” (Molecules, 2021)
